ChEMBL document CHEMBL1130478, “Mono and bis double ester prodrugs of novel aminomethyl-THF 1-methylcarbapenems” (Bioorg Med Chem Lett, 1997)
Converted amounts (≈) assume the structure as drawn.

Experiments:
Assay type in all cases: functional
[1] = tested on: Acinetobacter calcoaceticus; assay: In vitro antibacterial activity against Acinetobacter calcoaceticus (GC 756) following preincubation in mouse serum
[2] = tested on: Citrobacter freundii; assay: In vitro antibacterial activity against C. freundii(GC 2211) following pre-incubation in mouse serum
[3] = tested on: Citrobacter freundii; assay: In vitro antibacterial activity against C. freundii(GC 2211) without preincubation in mouse serum
[4] = biological target: T1, Dipeptidase 1 (Sus scrofa) (UniProt P22412); assay: Relative hydrolysis by hog Dehydropeptidase
T1 sequence (whole entry): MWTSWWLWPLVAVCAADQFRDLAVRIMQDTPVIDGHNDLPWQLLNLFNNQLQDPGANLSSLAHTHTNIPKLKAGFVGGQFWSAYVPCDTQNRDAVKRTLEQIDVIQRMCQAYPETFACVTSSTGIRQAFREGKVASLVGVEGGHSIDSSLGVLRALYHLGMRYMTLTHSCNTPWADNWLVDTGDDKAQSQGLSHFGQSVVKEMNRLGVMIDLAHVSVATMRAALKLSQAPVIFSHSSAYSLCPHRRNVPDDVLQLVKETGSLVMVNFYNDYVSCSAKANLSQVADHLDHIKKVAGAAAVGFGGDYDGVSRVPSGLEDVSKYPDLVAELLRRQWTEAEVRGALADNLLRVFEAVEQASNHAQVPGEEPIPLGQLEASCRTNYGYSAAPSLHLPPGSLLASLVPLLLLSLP

[5] = tested on: Enterococcus faecalis; assay: In vitro antibacterial activity against E. faecalis(GC 842) without pre-incubation in mouse serum
[6] = tested on: Enterococcus faecalis; assay: In vitro antibacterial activity against E. faecalis(GC 842) following pre-incubation in mouse serum
[7] = tested on: Enterobacter cloacae; assay: In vitro antibacterial activity against E. cloacae(GC 2209) following preincubation in mouse serum
[8] = tested on: Enterobacter cloacae; assay: In vitro antibacterial activity against E. cloacae(GC 2209) without pre-incubation in mouse serum
[9] = tested on: Enterococcus faecium; assay: In vitro for antibacterial activity against E. faecium(GC 1182) without pre-incubation in mouse serum
[10] = tested on: Escherichia coli; assay: In vitro antibacterial activity expressed as MIC against Escherichia coli (ATCC 25922) following pre-incubation in mouse serum
[11] = tested on: Escherichia coli; assay: In vitro antibacterial activity expressed as MIC against Escherichia coli (ATCC 25922) without pre-incubation in mouse serum
[12] = tested on: Escherichia coli; assay: In vitro antibacterial activity expressed as MIC against E. coli(GC 1792) following pre-incubation in mouse serum
[13] = tested on: Escherichia coli; assay: In vitro antibacterial activity expressed as MIC against E. coli(GC 1792) without pre-incubation in mouse serum
[14] = tested on: Escherichia coli; assay: In vitro antibacterial activity expressed as MIC against E. coli(GC 2205) following pre-incubation in mouse serum
[15] = tested on: Escherichia coli; assay: In vitro antibacterial activity expressed as MIC against E. coli(GC 2205) without pre-incubation in mouse serum
[16] = tested on: Mus musculus; assay: Antibacterial activity against Escherichia coli (311) infection in mice after single oral dose, activity expressed as ED50
[17] = tested on: Mus musculus; assay: Antibacterial activity against Escherichia coli (311) infection in mice after single subcutaneous dose, activity expressed as ED50; conditions: sc
[18] = tested on: Morganella morganii; assay: In vitro antibacterial activity against M. morganii(GC 2213) following pre-incubation in mouse serum
[19] = tested on: Morganella morganii; assay: In vitro antibacterial activity against M. morganii(GC 2213) without pre-incubation in mouse serum
[20] = tested on: Pseudomonas aeruginosa; assay: In vitro antibacterial activity against Pseudomonas aeruginosa (ATCC 27853) following pre-incubation in mouse serum
[21] = tested on: Pseudomonas aeruginosa; assay: In vitro antibacterial activity against Pseudomonas aeruginosa (ATCC 27853) without pre-incubation in mouse serum
[22] = tested on: Pseudomonas aeruginosa; assay: In vitro antibacterial activity against P. aeruginosa(GC 1544 oprd) without pre-incubation in mouse serum
[23] = tested on: Staphylococcus aureus; assay: In vitro antibacterial activity against S aureus(ATCC 29213) following preincubation in mouse serum
[24] = tested on: Staphylococcus aureus; assay: In vitro antibacterial activity against S. aureus(ATCC 29213) without pre-incubation in mouse serum
[25] = tested on: Staphylococcus aureus; assay: In vitro antibacterial activity against S. aureus(GC 2220 MRSA) without pre-incubation in mouse serum
[26] = tested on: Stenotrophomonas maltophilia; assay: In vitro antibacterial activity against X. maltophilia(GC 562) without pre-incubation in mouse serum
[27] = tested on: Staphylococcus aureus; assay: In vitro antibacterial activity against S. aureus(GC 2220 MRSA) following pre-incubation in mouse serum
[28] = tested on: Pseudomonas aeruginosa; assay: In vitro antibacterial activity against P. aeruginosa(GC 1544 oprd) following pre-incubation in mouse serum
[29] = tested on: Stenotrophomonas maltophilia; assay: In vitro antibacterial activity against X. maltophilia(GC 562) following pre-incubation in mouse serum
[30] = tested on: Acinetobacter calcoaceticus; assay: In vitro antibacterial activity against Acinetobacter calcoaceticus (GC 756) without preincubation in mouse serum
[31] = tested on: Enterococcus faecium; assay: In vitro for antibacterial activity against E. faecium(GC 1182) following pre-incubation in mouse serum

| Compound | MIC [1] | MIC [2] | MIC [3] | Relative hydrolysis [4] | MIC [5] | MIC [6] | MIC [7] | MIC [8] | MIC [9] | MIC [10] | MIC [11] | MIC [12] | MIC [13] | MIC [14] | MIC [15] | ED50 [16] | ED50 [17] | MIC [18] | MIC [19] | MIC [20] | other results |
| --- | --- | --- | --- | --- | --- | --- | --- | --- | --- | --- | --- | --- | --- | --- | --- | --- | --- | --- | --- | --- | --- |
| CCOC(=O)OCOC(=O)C1=C(S[C@@H]2CCO[C@@H]2CNC(=O)OC(C)OC(C)=O)[C@H](C)C2[C@@H]([C@@H](C)O)C(=O)N12 (some centres not stated) | 4 µg/mL (≈ 6.96 µM) | 0.25 µg/mL (≈ 0.435 µM) | 128 µg/mL (≈ 223 µM) | 4.9 | 64 µg/mL (≈ 111 µM) | 2 µg/mL (≈ 3.48 µM) | 0.12 µg/mL (≈ 0.209 µM) | 64 µg/mL (≈ 111 µM) | > 128 µg/mL | < 0.06 µg/mL | 4 µg/mL (≈ 6.96 µM) | < 0.06 µg/mL | 8 µg/mL (≈ 13.9 µM) | 0.06 µg/mL (≈ 0.104 µM) | 1 µg/mL (≈ 1.74 µM) | 0.83 mg/kg | 0.59 mg/kg | 1 µg/mL (≈ 1.74 µM) | 32 µg/mL (≈ 55.7 µM) | 16 µg/mL (≈ 27.8 µM) | MIC [21]: > 128 µg/mL; MIC [22]: > 128 µg/mL; MIC [23]: 0.03 µg/mL (≈ 0.0522 µM); MIC [24]: 8 µg/mL (≈ 13.9 µM); MIC [25]: > 128 µg/mL; MIC [26]: > 128 µg/mL; MIC [27]: 2 µg/mL (≈ 3.48 µM); MIC [28]: 32 µg/mL (≈ 55.7 µM); MIC [29]: > 128 µg/mL; MIC [30]: > 128 µg/mL; MIC [31]: 128 µg/mL (≈ 223 µM) |
| CCOC(=O)OCOC(=O)C1=C(S[C@@H]2CCO[C@@H]2CNC(=O)OC(C)OC(=O)C(C)C)[C@H](C)C2[C@@H]([C@@H](C)O)C(=O)N12 (some centres not stated) |  |  |  |  |  |  |  |  |  |  |  |  |  |  |  | 0.72 mg/kg | 0.45 mg/kg |  |  |  |  |
| CCOC(=O)OC(C)OC(=O)C1=C(S[C@@H]2CCO[C@@H]2CN)[C@H](C)C2[C@@H]([C@@H](C)O)C(=O)N12.Cl (some centres not stated) |  |  |  |  |  |  |  |  |  |  |  |  |  |  |  | 25 mg/kg | 1.8 mg/kg |  |  |  |  |
| CCOC(=O)OCOC(=O)C1=C(S[C@@H]2CCO[C@@H]2CNC(=O)OCOC(=O)C(C)(C)C)[C@H](C)C2[C@@H]([C@@H](C)O)C(=O)N12 (some centres not stated) | 8 µg/mL (≈ 13.3 µM) | 0.5 µg/mL (≈ 0.83 µM) | > 128 µg/mL | 20 | 64 µg/mL (≈ 106 µM) | 4 µg/mL (≈ 6.64 µM) | 0.25 µg/mL (≈ 0.415 µM) | > 128 µg/mL | > 128 µg/mL | 0.06 µg/mL (≈ 0.0996 µM) | 128 µg/mL (≈ 212 µM) | 0.12 µg/mL (≈ 0.199 µM) | > 128 µg/mL | 0.12 µg/mL (≈ 0.199 µM) | 1 µg/mL (≈ 1.66 µM) | 0.96 mg/kg | 0.73 mg/kg | 4 µg/mL (≈ 6.64 µM) | > 128 µg/mL | 32 µg/mL (≈ 53.1 µM) | MIC [21]: > 128 µg/mL; MIC [22]: > 128 µg/mL; MIC [23]: 0.12 µg/mL (≈ 0.199 µM); MIC [24]: 4 µg/mL (≈ 6.64 µM); MIC [25]: 64 µg/mL (≈ 106 µM); MIC [26]: > 128 µg/mL; MIC [27]: 2 µg/mL (≈ 3.32 µM); MIC [28]: 64 µg/mL (≈ 106 µM); MIC [29]: > 128 µg/mL; MIC [30]: > 128 µg/mL; MIC [31]: > 128 µg/mL |
| CCOC(=O)OCOC(=O)C1=C(S[C@@H]2CCO[C@@H]2CNC(=O)OC(C)OC(=O)C(C)(C)C)[C@H](C)C2[C@@H]([C@@H](C)O)C(=O)N12 (some centres not stated) | 8 µg/mL (≈ 13 µM) | 0.5 µg/mL (≈ 0.811 µM) | > 128 µg/mL | 19 | 32 µg/mL (≈ 51.9 µM) | 2 µg/mL (≈ 3.24 µM) | 0.12 µg/mL (≈ 0.195 µM) | > 128 µg/mL | > 128 µg/mL | 0.06 µg/mL (≈ 0.0973 µM) | 128 µg/mL (≈ 208 µM) | 0.06 µg/mL (≈ 0.0973 µM) | > 128 µg/mL | 0.06 µg/mL (≈ 0.0973 µM) | 1 µg/mL (≈ 1.62 µM) | 0.42 mg/kg | 0.46 mg/kg | 2 µg/mL (≈ 3.24 µM) | > 128 µg/mL | 32 µg/mL (≈ 51.9 µM) | MIC [21]: > 128 µg/mL; MIC [22]: > 128 µg/mL; MIC [23]: 0.06 µg/mL (≈ 0.0973 µM); MIC [24]: 4 µg/mL (≈ 6.49 µM); MIC [25]: 64 µg/mL (≈ 104 µM); MIC [26]: > 128 µg/mL; MIC [27]: 4 µg/mL (≈ 6.49 µM); MIC [28]: 64 µg/mL (≈ 104 µM); MIC [29]: > 128 µg/mL; MIC [30]: > 128 µg/mL; MIC [31]: 64 µg/mL (≈ 104 µM) |
| C[C@@H](O)[C@H]1C(=O)N2C(C(=O)O)=C(SCCNC=N)C[C@H]12 [IMIPENEM ANHYDROUS] |  |  |  |  |  |  |  |  |  |  |  |  |  |  |  | 79 mg/kg | 0.7 mg/kg |  |  |  |  |
| CCCC(=O)OCOC(=O)NC[C@H]1OCC[C@H]1SC1=C(C(=O)OCOC(=O)OCC)N2C(=O)[C@H]([C@@H](C)O)C2[C@H]1C (some centres not stated) |  |  |  |  |  |  |  |  |  |  |  |  |  |  |  | 1.3 mg/kg | 0.49 mg/kg |  |  |  |  |
| CC(C)C(=O)OCOC(=O)C1=C(SC2CCOC2CN)[C@H](C)C2[C@@H]([C@@H](C)O)C(=O)N12.CCN(C(C)C)C(C)C (some centres not stated) |  |  |  |  |  |  |  |  |  |  |  |  |  |  |  | 2.3 mg/kg | 0.18 mg/kg |  |  |  |  |
| CCOC(=O)OCOC(=O)C1=C(S[C@@H]2CCO[C@@H]2CNC(=O)OCOC(=O)c2ccccc2)[C@H](C)C2[C@@H]([C@@H](C)O)C(=O)N12 (some centres not stated) |  |  |  |  |  |  |  |  |  |  |  |  |  |  |  | 0.76 mg/kg | 0.54 mg/kg |  |  |  |  |
| CCOC(=O)OCOC(=O)NCC1OCCC1SC1=C(C(=O)OCOC(=O)C(C)C)N2C(=O)[C@H]([C@@H](C)O)C2[C@H]1C (some centres not stated) |  |  |  |  |  |  |  |  |  |  |  |  |  |  |  | 0.87 mg/kg | 0.37 mg/kg |  |  |  |  |
